Our source for the EC50 values is article PMC5638539, “A mannitol/sorbitol receptor stimulates dietary intake in Tribolium castaneum” (PLoS ONE, 2017).

Experiment [1] has as its target T1, TcGr20 (gustatory receptor 20) (Tribolium castaneum, UniProt D2A5I4).
T1 construct: ORF of TcGr20 expressed in Xenopus oocytes
T1 sequence (D2A5I4 1-388): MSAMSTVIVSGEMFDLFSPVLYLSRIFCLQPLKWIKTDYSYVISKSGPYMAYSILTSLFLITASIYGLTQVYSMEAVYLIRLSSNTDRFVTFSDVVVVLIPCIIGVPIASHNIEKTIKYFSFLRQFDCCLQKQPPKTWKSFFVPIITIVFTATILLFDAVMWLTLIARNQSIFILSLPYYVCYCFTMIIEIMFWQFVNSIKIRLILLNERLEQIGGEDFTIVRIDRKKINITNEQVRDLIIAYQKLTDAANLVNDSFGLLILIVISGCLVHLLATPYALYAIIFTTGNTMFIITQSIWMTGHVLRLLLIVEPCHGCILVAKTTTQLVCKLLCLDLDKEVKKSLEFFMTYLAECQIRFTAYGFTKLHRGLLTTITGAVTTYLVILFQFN
The experiment in a line: two-electrode voltage clamp in Xenopus oocytes expressing TcGr20, dose-response; water-injected control negative. It is filed as cell-based.

The target in experiment [2] is T1, TcGr20 (gustatory receptor 20). The experiment in a line: two-electrode voltage clamp in Xenopus oocytes expressing TcGr20, dose-response. Format: cell-based. On the technique in general: Two-electrode voltage clamp holds a large cell at a set potential and records current.

The compound `OC[C@@H](O)[C@@H](O)[C@H](O)[C@H](O)CO` [mannitol] came in with an EC50 in experiment [1] of 72.6 ± 9.1 mM.

Regarding `OC[C@@H](O)[C@@H](O)[C@H](O)[C@@H](O)CO` [sorbitol], the EC50 in experiment [2] was found to be 90.6 ± 10.4 mM.

As usually defined, the EC50 is the concentration that produces a half-maximal response.
